Reference: ChEMBL document CHEMBL1201862, “PubChem BioAssay data set” (2004)
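Interpolation was linear, between the two tested concentrations surrounding the appropriate level; five concentrations were tested over 48 hours in 96-well plates. Here, GI50 denotes the concentration required for 50% inhibition of growth.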 The source made the active and inactive calls. Cut-off read from the data, not from the text of the source: active = GI50 up to about 1.1 µM and inactive = higher.

What was measured:
Test in all cases: NCI tumour cell line growth inhibition, 48 h
U-251 = test system: U-251
CAKI-1 = test system: CAKI-1
K562 = test system: K562
MOLT-4 = test system: MOLT-4
SR = test system: SR
SF-268 = test system: SF-268
OVCAR-4 = test system: OVCAR-4
OVCAR-8 = test system: OVCAR-8
MCF7 = test system: MCF7
HCT-116 = test system: HCT-116
MDA-MB-231 = test system: MDA-MB-231
M14 = test system: M14
SF-539 = test system: SF-539
SK-MEL-5 = test system: SK-MEL-5
SW-620 = test system: SW-620
DU-145 = test system: DU-145
786-0 = test system: 786-0
PC-3 = test system: PC-3
EKVX = test system: EKVX
SNB-75 = test system: SNB-75

SMILES | GI50 (U-251) | GI50 (CAKI-1) | GI50 (K562) | GI50 (MOLT-4) | GI50 (SR) | GI50 (SF-268) | GI50 (OVCAR-4) | GI50 (OVCAR-8) | GI50 (MCF7) | GI50 (HCT-116) | GI50 (MDA-MB-231) | GI50 (M14) | GI50 (SF-539) | GI50 (SK-MEL-5) | GI50 (SW-620) | GI50 (DU-145) | GI50 (786-0) | GI50 (PC-3) | GI50 (EKVX) | GI50 (SNB-75)
Cc1ccc(C(=O)N(C2CCCCC2)C2CCCCC2)cc1/N=N/N(C)C | 18.4 µM (inactive) | 12.9 µM (inactive) | 8.28 µM (inactive) | 14.4 µM (inactive) | 18.2 µM (inactive) | 10.8 µM (inactive) | 10.4 µM (inactive) | 8.81 µM (inactive) | 14.9 µM (inactive) | 5.51 µM (inactive) | 12.6 µM (inactive) | 17.6 µM (inactive) | 19.5 µM (inactive) | 14.3 µM (inactive) | 8.83 µM (inactive) | > 10 µM (inactive) | 15.3 µM (inactive) | 10.4 µM (inactive) | 16.3 µM (inactive) | 
COc1cc2c(cc1OCCCOc1cc3c(cc1OC)C(=O)N1CCC[C@H]1C(=O)N3)N=C[C@@H]1CCCN1C2=O | 4.65 µM (inactive) | 29.9 µM (inactive) | 3.77 µM (inactive) | 0.206 µM (active) | 1.54 µM (inactive) | 4.82 µM (inactive) | 18.5 µM (inactive) | 23.4 µM (inactive) | 4.52 µM (inactive) | 26.4 µM (inactive) | 14.9 µM (inactive) | 20.3 µM (inactive) |  | 12.5 µM (inactive) | 11 µM (inactive) | 36.7 µM (inactive) | 29 µM (inactive) | 13.6 µM (inactive) | 17 µM (inactive) | 10.1 µM (inactive)
CC1(C)COC(c2ccccc2-c2ccccc2)=N1 | 89.5 µM (inactive) | 81.3 µM (inactive) | 90.2 µM (inactive) | > 100 µM (inactive) | > 100 µM (inactive) | > 100 µM (inactive) | > 100 µM (inactive) | > 100 µM (inactive) | > 100 µM (inactive) | > 100 µM (inactive) | 56.6 µM (inactive) | > 100 µM (inactive) | > 100 µM (inactive) |  | > 100 µM (inactive) | > 100 µM (inactive) | > 100 µM (inactive) | > 100 µM (inactive) | 72.1 µM (inactive) | 
CCOC(=O)C1C(=O)CC(C)(O)C(C(=O)OCC)C1c1ccc(O)c(OC)c1 (centres undefined) | > 100 µM (inactive) | > 100 µM (inactive) | > 100 µM (inactive) | > 100 µM (inactive) | > 100 µM (inactive) | > 100 µM (inactive) | > 100 µM (inactive) | > 100 µM (inactive) | > 100 µM (inactive) | > 100 µM (inactive) | > 100 µM (inactive) |  |  | > 100 µM (inactive) | > 100 µM (inactive) | > 100 µM (inactive) | > 100 µM (inactive) | > 100 µM (inactive) | > 100 µM (inactive) | > 100 µM (inactive)
Cc1cn([C@@H]2C[C@H](CO)[C@@H]2O)c(=O)[nH]c1=O | > 100 µM (inactive) | > 100 µM (inactive) | > 100 µM (inactive) | > 100 µM (inactive) | > 100 µM (inactive) | > 100 µM (inactive) | > 100 µM (inactive) | > 100 µM (inactive) | > 100 µM (inactive) | > 100 µM (inactive) | > 100 µM (inactive) |  | > 100 µM (inactive) | > 100 µM (inactive) | > 100 µM (inactive) | > 100 µM (inactive) | > 100 µM (inactive) | > 100 µM (inactive) | > 100 µM (inactive) | > 100 µM (inactive)
CNC(=O)OC(C)CN1c2ccccc2Sc2ccccc21 (centres undefined) | > 100 µM (inactive) | > 100 µM (inactive) | 63.7 µM (inactive) | 19.1 µM (inactive) | 86.3 µM (inactive) | > 100 µM (inactive) | 74.5 µM (inactive) | > 100 µM (inactive) | > 100 µM (inactive) | 57.5 µM (inactive) | > 100 µM (inactive) | 64.9 µM (inactive) | 64.3 µM (inactive) | 59.8 µM (inactive) | > 100 µM (inactive) | > 100 µM (inactive) | 64.6 µM (inactive) | 8.63 µM (inactive) | 51.4 µM (inactive) | 
O=C(c1cccc2cc(O)ccc12)c1cn(CCN2CCOCC2)c2ccccc12 |  | 39.4 µM (inactive) | 60.1 µM (inactive) | 34.7 µM (inactive) | 50.2 µM (inactive) | 24 µM (inactive) |  | 31.6 µM (inactive) | 25.5 µM (inactive) | 20 µM (inactive) | 19.5 µM (inactive) | 20 µM (inactive) | > 100 µM (inactive) | 40 µM (inactive) | 22.4 µM (inactive) | 30.1 µM (inactive) | 21.1 µM (inactive) | 12 µM (inactive) | 28.1 µM (inactive) | 
